Source: ChEMBL document CHEMBL1148887, “Design and synthesis of benzoazepinone-derived cyclic malonamides and aminoamides as potent gamma-secretase inhibitors” (Bioorg Med Chem Lett, 2007)
pIC50, pKi: −log10 of the molar value.

Target: Gamma-secretase
Test: Inhibition of gamma secretase in APP-transfected CHO cells
Type: cell-based, Homo sapiens
Conditions: not given
CCCCNC(=O)C1(C(=O)N[C@H]2N=C(c3ccccc3)c3ccccc3N(C)C2=O)CCC1 gave a pIC50 of 7.70.
Work on CC(C)CNC(=O)C1(C(=O)N[C@H]2N=C(c3ccccc3)c3ccccc3N(C)C2=O)CCC1 yielded a pIC50 of 7.68.
Work on CCCNC(=O)C1(C(=O)N[C@H]2N=C(c3ccccc3)c3ccccc3N(C)C2=O)CCC1 yielded a pIC50 of 7.09.
CN1C(=O)[C@@H](NC(=O)C2(C(=O)NCc3cccs3)CCCC2)N=C(c2ccccc2)c2ccccc21 gave a pIC50 of 7.72.
With CC(C)CCNC(=O)C1(C(=O)N[C@@H]2C(=O)N(C)c3ccccc3-c3ccccc32)CCC1 the pIC50 was 7.82.
With CC(C)CCNC(=O)C1(C(=O)N[C@H]2N=C(c3ccc(C(F)(F)F)cc3)c3ccccc3N(C)C2=O)CCC1 the pIC50 was 7.85.
CN1C(=O)[C@@H](NC(=O)C2(C(=O)NCc3cc(F)cc(F)c3)CCC2)N=C(c2ccccc2)c2ccccc21 gave a pIC50 of 6.94.
For CC(C)C[C@H](O)NC(=O)C1(C(=O)N[C@@H]2C(=O)N(C)c3ccccc3-c3ccccc32)CCC1, the pIC50 was 8.38.
In the case of CC(C)CNC(=O)C1(C(=O)N[C@@H]2C(=O)N(C)c3ccccc3-c3ccccc32)CCC1, the pIC50 was 8.24.
With CN1C(=O)[C@@H](NC(=O)C2(C(=O)NCCC3CCCC3)CCC2)N=C(c2ccc(C(F)(F)F)cc2)c2ccccc21 the pIC50 was 7.89.

Target: Gamma-secretase
Test: Displacement of [3H]succinamide from gamma secretase in THP1 cell membranes
Design: species or system Homo sapiens
Conditions: thp-1
With CN1C(=O)[C@@H](NC(=O)C2(C(=O)NCCC3CCCC3)CCCC2)N=C(c2ccccc2)c2ccccc21 the pKi was 7.44.
With CCCNC(=O)C(CC)(CC)C(=O)N[C@H]1N=C(c2ccccc2)c2ccccc2N(C)C1=O the pKi was 6.64.
For CCCCNC(=O)C1(C(=O)N[C@H]2N=C(c3ccccc3)c3ccccc3N(C)C2=O)CCC1, the pKi was 7.96.
With CC(C)CNC(=O)C1(C(=O)N[C@H]2N=C(c3ccccc3)c3ccccc3N(C)C2=O)CCC1 the pKi was 8.46.
Molecule CCCNC(=O)C1(C(=O)N[C@H]2N=C(c3ccccc3)c3ccccc3N(C)C2=O)CCC1 has a pKi of 7.82.
With CN1C(=O)[C@@H](NC(=O)C2(C(=O)NCc3cccs3)CCCC2)N=C(c2ccccc2)c2ccccc21 the pKi was 7.39.
For CCNC(=O)C(CC)(CC)C(=O)N[C@H]1N=C(c2ccccc2)c2ccccc2N(C)C1=O, the pKi was 6.00.
Work on CC(C)CCNC(=O)C1(C(=O)N[C@@H]2C(=O)N(C)c3ccccc3-c3ccccc32)CCC1 yielded a pKi of 8.40.
With CC(C)CCNC(=O)C1(C(=O)N[C@H]2N=C(c3ccc(C(F)(F)F)cc3)c3ccccc3N(C)C2=O)CCC1 the pKi was 8.31.
In the case of CN1C(=O)[C@@H](NC(=O)C2(C(=O)NCc3cc(F)cc(F)c3)CCC2)N=C(c2ccccc2)c2ccccc21, the pKi was 7.87.
Work on CC(C)C[C@H](O)NC(=O)C1(C(=O)N[C@@H]2C(=O)N(C)c3ccccc3-c3ccccc32)CCC1 yielded a pKi of 9.05.
With CC(C)CNC(=O)C1(C(=O)N[C@@H]2C(=O)N(C)c3ccccc3-c3ccccc32)CCC1 the pKi was 8.85.
With CN1C(=O)[C@@H](NC(=O)C2(C(=O)NCCC3CCCC3)CCC2)N=C(c2ccc(C(F)(F)F)cc2)c2ccccc21 the pKi was 8.66.

Tested on: not listed separately
Test: Fraction unbound ligand in Beagle dog at 0.5 mg/kg, po
Type: ADME, organism-based, Canis lupus familiaris
Design: dose 0.5 mg/kg, route oral
Conditions: in vivo
In the case of CC(C)CNC(=O)C1(C(=O)N[C@H]2N=C(c3ccccc3)c3ccccc3N(C)C2=O)CCC1, the fraction unbound was 0.004.
Work on CC(C)CCNC(=O)C1(C(=O)N[C@@H]2C(=O)N(C)c3ccccc3-c3ccccc32)CCC1 yielded a fraction unbound of 0.005.
With CC(C)CCNC(=O)C1(C(=O)N[C@H]2N=C(c3ccc(C(F)(F)F)cc3)c3ccccc3N(C)C2=O)CCC1 the fraction unbound was 0.005.
With CC(C)CNC(=O)C1(C(=O)N[C@@H]2C(=O)N(C)c3ccccc3-c3ccccc32)CCC1 the fraction unbound was 0.001.

Tested on: not listed separately
Test: Clearance in Beagle dog at 0.5 mg/kg, po
Type: ADME, organism-based, Canis lupus familiaris
Design: dose 0.5 mg/kg, route oral
Conditions: in vivo
Molecule CC(C)CNC(=O)C1(C(=O)N[C@H]2N=C(c3ccccc3)c3ccccc3N(C)C2=O)CCC1 has a CL/F of 21.7 mL/min/kg.
CC(C)CCNC(=O)C1(C(=O)N[C@@H]2C(=O)N(C)c3ccccc3-c3ccccc32)CCC1 showed a CL/F of 3.33 mL/min/kg.
For CC(C)CCNC(=O)C1(C(=O)N[C@H]2N=C(c3ccc(C(F)(F)F)cc3)c3ccccc3N(C)C2=O)CCC1, the CL/F was 3.33 mL/min/kg.
With CC(C)CNC(=O)C1(C(=O)N[C@@H]2C(=O)N(C)c3ccccc3-c3ccccc32)CCC1 the CL/F was 8.33 mL/min/kg.

Tested on: Canis familiaris
Test: Volume of distribution at steady state in Beagle dog at 0.5 mg/kg, po
Type: ADME, organism-based, Canis lupus familiaris
Design: dose 0.5 mg/kg, route oral
Conditions: in vivo
Work on CC(C)CNC(=O)C1(C(=O)N[C@H]2N=C(c3ccccc3)c3ccccc3N(C)C2=O)CCC1 yielded a Vdss of 3.1 L/kg.
With CC(C)CCNC(=O)C1(C(=O)N[C@@H]2C(=O)N(C)c3ccccc3-c3ccccc32)CCC1 the Vdss was 0.9 L/kg.
In the case of CC(C)CCNC(=O)C1(C(=O)N[C@H]2N=C(c3ccc(C(F)(F)F)cc3)c3ccccc3N(C)C2=O)CCC1, the Vdss was 1.9 L/kg.
CC(C)CNC(=O)C1(C(=O)N[C@@H]2C(=O)N(C)c3ccccc3-c3ccccc32)CCC1 gave a Vdss of 2.1 L/kg.

Tested on: not listed separately
Test: Half life in Beagle dog at 0.5 mg/kg, po
Type: ADME, organism-based, Canis lupus familiaris
Design: dose 0.5 mg/kg, route oral
Conditions: in vivo
With CC(C)CNC(=O)C1(C(=O)N[C@H]2N=C(c3ccccc3)c3ccccc3N(C)C2=O)CCC1 the half-life was 5.3 h.
CC(C)CCNC(=O)C1(C(=O)N[C@@H]2C(=O)N(C)c3ccccc3-c3ccccc32)CCC1 showed a half-life of 5.3 h.
For CC(C)CCNC(=O)C1(C(=O)N[C@H]2N=C(c3ccc(C(F)(F)F)cc3)c3ccccc3N(C)C2=O)CCC1, the half-life was 13.2 h.
Work on CC(C)CNC(=O)C1(C(=O)N[C@@H]2C(=O)N(C)c3ccccc3-c3ccccc32)CCC1 yielded a half-life of 4.6 h.

Tested on: not listed separately
Test: Cmax in Beagle dog at 0.5 mg/kg, po
Type: ADME, organism-based, Canis lupus familiaris
Design: dose 0.5 mg/kg, route oral
Conditions: in vivo
CC(C)CNC(=O)C1(C(=O)N[C@H]2N=C(c3ccccc3)c3ccccc3N(C)C2=O)CCC1 gave a Cmax of 84 nM.
CC(C)CCNC(=O)C1(C(=O)N[C@@H]2C(=O)N(C)c3ccccc3-c3ccccc32)CCC1 gave a Cmax of 172 nM.
Work on CC(C)CCNC(=O)C1(C(=O)N[C@H]2N=C(c3ccc(C(F)(F)F)cc3)c3ccccc3N(C)C2=O)CCC1 yielded a Cmax of 567 nM.
CC(C)CNC(=O)C1(C(=O)N[C@@H]2C(=O)N(C)c3ccccc3-c3ccccc32)CCC1 gave a Cmax of 184 nM.

Tested on: not listed separately
Test: Oral bioavailability in Beagle dog at 0.5 mg/kg, po
Type: ADME, organism-based, Canis lupus familiaris
Conditions: in vivo
With CC(C)CNC(=O)C1(C(=O)N[C@H]2N=C(c3ccccc3)c3ccccc3N(C)C2=O)CCC1 the bioavailability was 42%.
Work on CC(C)CCNC(=O)C1(C(=O)N[C@@H]2C(=O)N(C)c3ccccc3-c3ccccc32)CCC1 yielded a bioavailability of 23%.
CC(C)CCNC(=O)C1(C(=O)N[C@H]2N=C(c3ccc(C(F)(F)F)cc3)c3ccccc3N(C)C2=O)CCC1 gave a bioavailability of 61%.
In the case of CC(C)CNC(=O)C1(C(=O)N[C@@H]2C(=O)N(C)c3ccccc3-c3ccccc32)CCC1, the bioavailability was 47%.
